Laboratory results taken from patent US11666600B2, “Methods for culturing and/or differentiating hematopoietic stem cells into progenitors and uses thereof” (HEMA-QUEBEC, priority 2015, dated 2023).

Assays:
[1] = tested on: aryl hydrocarbon receptor (AhR) pathway; details: Fares et al., 2014; cited from earlier work
[2] = tested on: CD34+/CD45RA− mobilized peripheral blood cells; details: Fares et al., 2014; cited from earlier work
[3] = tested on: cord blood CD34+ cells; assay: Expansion of CD34+/CD41+ megakaryocytic progenitors from cord blood CD34+ cells; type: cell-based, human; details: 39° C. + PIC2 500 nM; 14 days; SFEM + BS1; FIG. 7
Protocol: Human cord blood (CB) was collected after obtaining written informed consent from donors, following our institutional Research Ethics Committee guidelines. Mononuclear cells (MNCs) were first separated over a Ficoll-Hypaque™ density gradient (GE Healthcare), then cryopreserved at −180° C. in Cryostor CS10™ medium ([…] Technologies). Thawed MNCs from six to eight CB were pooled before CD34 isolation. CB CD34+ cells were enriched by positive selection using the EasySep™ CD34 enrichment kit, according to the manufacturer's instructions ([…] Technologies). […]
Cellular counts and viability were determined by adding Solution 18 (Acridine Orange and DAPI solution, ChemomMetec) and using NucleoCounter™ NC-250 for detection (ChemomMetec).
For cells expanded in conditions favoring differentiation towards the MK lineage, surface markers were detected using the following antibodies: CD34-FITC, CD41a-APC and CD42b-PE. […] All samples were analyzed on an Accuri™ C6 flow cytometer (BD Biosciences), and raw data were analyzed with FCS Express 5 Flow Research Edition software from at least 15 000 viable cell events acquired for each sample. […]
Cellular counts and viability were determined as described in Example 6.5. […]

In the case of `COC(=O)c1ccc2c(c1)[nH]c1ncnc(NCCCN3CCCCC3)c12` [PIC2, Methyl 4-((3-(piperidin-1-yl)propyl)amino)-9H-pyrimido[4,5-b]indole-7-carboxylate], the “suppression of the aryl hydrocarbon receptor (AhR) pathway” value [1] is listed as “without acting as suppressors”, the “expansion of CD34+/CD45RA− mobilized peripheral blood cells (enriched in LT-HSCs)” value [2] is listed as “stimulate expansion” and the “combined use of mild hyperthermia and PIC2 on expansion of CB CD34+/CD41+ cells” value [3] is listed as “synergistic effect”.
